Source: ChEMBL document CHEMBL4665812, “Targeting Her2-insYVMA with Covalent Inhibitors-A Focused Compound Screening and Structure-Based Design Approach” (J Med Chem, 2020)
Values after ≈ are worked out from the molar mass of the structure shown.

Key:
cells = format: cell-based; settings: Homo sapiens, NCI-H1781, 96 h
Description: Inhibition of HER2-G776delinsVC mutant (unknown origin) expressed in human H1781 cells assessed as reduction in HER2 induced cell viability after 96 hrs by CellTiter-Glo assay

[1] = Inhibition of HER2-A775_G776insYVMA mutant (unknown origin) expressed in mouse BaF3 cells assessed as reduction in HER2 induced cell viability after 96 hrs by CellTiter-Glo assay; format: cell-based; settings: BaF3, 96 h
[2] = target: Receptor tyrosine-protein kinase erbB-2 (Homo sapiens, UniProt P04626); assay: Inhibition of C-terminal His6-tagged HER2 (703 to 1029 residues) (unknown origin) expressed in Sf9 insect cells using TK as substrate preincubated for 30 mins followed by substrate addition and measured after 60 mins in presence of XL665-labeled streptavidin by HTRF assay
[3] = Stability of compound in mouse plasma assessed as parent compound remaining at 5 uM measured for 1 hr by LC-MS analysis; format: ADME, cell-free; settings: for remaining at 1 h, 5 µM: read-out: Stabilty
[4] = Intrinsic clearance in mouse liver microsomes at 3 uM measured up to 60 mins by LC-MS analysis; format: ADME, Microsome; settings: read-out: CLH
[5] = Apparent permeability across apical side to basolateral side in human Caco-2 cells at 5 uM after 2 hrs by transwell assay; format: ADME, cell-based; settings: read-out: permeability
[6] = Apparent permeability across basolateral side to apical side in human Caco-2 cells at 5 uM after 2 hrs by transwell assay; format: ADME, cell-based; settings: read-out: permeability
[7] = Stability of compound in human plasma assessed as parent compound remaining at 5 uM measured for 1 hr by LC-MS analysis; format: ADME, cell-free; settings: read-out: Stabilty
[8] = Intrinsic clearance in human liver microsomes at 3 uM measured up to 50 mins by LC-MS analysis; format: ADME, Microsome; settings: read-out: CLH
[9] = Solubility of compound in aqueous buffer at pH 7.4 after 120 mins by turbidometric assay; format: physicochemical
[10] = Kinetic solubility of compound in HEPES buffer a pH 7.4 at 500 uM after 90 mins; format: physicochemical; settings: read-out: Kinetic_solubility
[11] = Ratio of apparent permeability across basolateral to apical over apical to basolateral side in human Caco2 cells at 5 uM after 2 hrs by transwell assay; format: ADME, cell-based; settings: Caco-2
[12] = Inhibition of C-terminal His6-tagged HER2-A775_G776insYVMA mutant (703 to 1029 residues) (unknown origin) expressed in Sf9 insect cells using TK as substrate measured up to 2 to 40 mins by fluorescence assay; parameters: species or system Homo sapiens

Chain of Receptor tyrosine-protein kinase erbB-2 (P04626 whole entry, the tested form may be a part): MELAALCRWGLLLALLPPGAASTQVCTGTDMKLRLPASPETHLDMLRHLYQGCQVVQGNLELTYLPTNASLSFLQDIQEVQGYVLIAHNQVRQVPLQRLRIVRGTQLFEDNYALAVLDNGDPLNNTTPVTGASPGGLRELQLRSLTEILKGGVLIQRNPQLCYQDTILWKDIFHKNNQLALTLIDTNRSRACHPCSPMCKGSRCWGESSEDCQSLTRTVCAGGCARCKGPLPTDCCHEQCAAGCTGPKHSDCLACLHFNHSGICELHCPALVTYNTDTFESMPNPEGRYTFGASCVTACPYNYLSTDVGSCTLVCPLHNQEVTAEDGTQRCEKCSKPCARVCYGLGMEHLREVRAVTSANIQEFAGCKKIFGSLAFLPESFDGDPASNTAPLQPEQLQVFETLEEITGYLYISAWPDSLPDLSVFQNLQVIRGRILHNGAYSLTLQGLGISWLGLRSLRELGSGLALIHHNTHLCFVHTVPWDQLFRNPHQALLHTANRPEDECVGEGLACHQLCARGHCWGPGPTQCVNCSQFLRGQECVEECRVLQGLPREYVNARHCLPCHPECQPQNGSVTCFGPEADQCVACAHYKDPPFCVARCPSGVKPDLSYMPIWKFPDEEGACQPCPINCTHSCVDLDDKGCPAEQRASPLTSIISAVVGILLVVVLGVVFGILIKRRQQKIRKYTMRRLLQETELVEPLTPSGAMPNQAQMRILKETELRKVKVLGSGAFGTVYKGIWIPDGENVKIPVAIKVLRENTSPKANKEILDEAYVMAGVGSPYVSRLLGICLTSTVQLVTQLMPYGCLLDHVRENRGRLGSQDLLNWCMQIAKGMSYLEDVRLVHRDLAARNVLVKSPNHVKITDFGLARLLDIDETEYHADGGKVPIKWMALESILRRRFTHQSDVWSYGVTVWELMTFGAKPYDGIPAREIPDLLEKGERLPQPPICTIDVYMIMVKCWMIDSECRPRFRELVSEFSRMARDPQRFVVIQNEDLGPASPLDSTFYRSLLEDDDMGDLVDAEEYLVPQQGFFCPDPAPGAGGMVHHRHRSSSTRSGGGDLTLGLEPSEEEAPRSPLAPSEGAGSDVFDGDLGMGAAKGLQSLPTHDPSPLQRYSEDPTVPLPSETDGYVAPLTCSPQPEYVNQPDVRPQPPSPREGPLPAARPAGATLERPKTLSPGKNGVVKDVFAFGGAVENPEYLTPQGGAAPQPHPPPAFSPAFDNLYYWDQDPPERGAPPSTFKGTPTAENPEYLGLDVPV

| SMILES | IC50 (cells) [nM] | IC50 [2] [nM] | IC50 [1] [nM] | also measured |
| --- | --- | --- | --- | --- |
| C=CC(=O)Nc1cc(Nc2nccc(-c3cn(C)c4ccccc34)n2)c(OC)cc1N(C)CCN(C)C [OSIMERTINIB] | 808 | – | 1390 | – |
| C=CC(=O)Nc1cccc(-c2c(-c3ccc(N4CCN(C)CC4)cc3)[nH]c3ncnc(Nc4ccc(NC(=O)C(c5ccccc5)N5Cc6ccccc6C5=O)cc4)c23)c1 (stereo not drawn) | 699 | 43 | 2680 | – |
| C=CC(=O)Nc1cc(-c2c[nH]c3ncnc(Nc4ccc(CN5C(=O)c6ccccc6C5=O)cc4)c23)ccc1OCCN(C)C | 1200 | 23 | 621 | – |
| C=CC(=O)Nc1cccc(-c2c(-c3ccc(N4CCN(C)CC4)cc3)[nH]c3ncn(CC(C)C)c(=O)c23)c1 | 988 | 321 | 2420 | – |
| C=CC(=O)Nc1cc(-c2c[nH]c3ncnc(Nc4ccc(OCc5ccccn5)c(Cl)c4)c23)ccc1OC(C)COC (stereo not drawn) | 549 | 14 | 259 | – |
| CN(C)C/C=C/C(=O)Nc1cc2c(Nc3ccc(F)c(Cl)c3)ncnc2cc1O[C@H]1CCOC1 [AFATINIB] | – | – | – | remaining at 1 h, 5 µM [3]: 101%; microsomal CLint at 3 µM [4]: 9.4 µL/min/mg; Papp A→B at 2 h, 5 µM [5]: 2.38 ×10⁻⁶ cm/s; Papp B→A at 2 h, 5 µM [6]: 55.4 ×10⁻⁶ cm/s; remaining at 1 h, 5 µM [7]: 96.5%; microsomal CLint at 3 µM [8]: 1.4 µL/min/mg |
| CC(C)(O)CC(=O)NCCn1ccc2ncnc(Nc3ccc(Oc4cccc(C(F)(F)F)c4)c(Cl)c3)c21 [TAK-285] | 3980 | – | 3220 | – |
| C=CC(=O)Nc1cccc(-c2c(-c3ccc(N4CCN(C)CC4)cc3)[nH]c3ncn(C)c(=O)c23)c1 | 1230 | 146 | 3300 | – |
| CS(=O)(=O)CCNCc1ccc(-c2ccc3ncnc(Nc4ccc(OCc5cccc(F)c5)c(Cl)c4)c3c2)o1 [LAPATINIB] | 3940 | – | 2760 | remaining at 1 h, 5 µM [3]: 95.9%; microsomal CLint at 3 µM [4]: 73.7 µL/min/mg; Papp A→B at 2 h, 5 µM [5]: 0.7 ×10⁻⁶ cm/s; Papp B→A at 2 h, 5 µM [6]: 0.2 ×10⁻⁶ cm/s; solubility kinetic at 2 h [9]: 3 µM (≈ 1.74 µg/mL); solubility kinetic at 1.5 h, 500 µM [10]: 4.1 µM (≈ 2.38 µg/mL); remaining at 1 h, 5 µM [7]: 99.7%; microsomal CLint at 3 µM [8]: 16.7 µL/min/mg |
| C=CC(=O)Nc1cccc(-c2c(-c3ccc(N4CCN(C)CC4)cc3)[nH]c3ncnc(OC(C)C)c23)c1 | 1180 | 21 | 1440 | – |
| C=CC(=O)Nc1cccc(-c2c[nH]c3ncnc(Nc4ccc(Oc5ccccc5)cc4)c23)c1 | > 3000 | 13 | > 3000 | – |
| C=CC(=O)Nc1cccc(-c2c[nH]c3ncnc(Nc4ccc(OCN5C(=O)c6ccccc6C5=O)cc4)c23)c1 | 383 | 4.5 | 562 | – |
| C=CC(=O)Nc1cccc(-c2c(-c3ccc(N4CCN(C)CC4)cc3)[nH]c3ncnc(Nc4ccc(OCc5cccc(F)c5)c(Cl)c4)c23)c1 | > 30000 | 95 | 2220 | – |
| C=CC(=O)Nc1cccc(-c2c(-c3ccc(N4CCN(C)CC4)cc3)[nH]c3ncnc(OCC)c23)c1 | 417 | 14 | 327 | – |
| C=CC(=O)Nc1cc(-c2c[nH]c3ncnc(Nc4ccc5[nH]c(Cc6ccccc6)nc5c4)c23)ccc1OCCO | > 3000 | 188 | > 3000 | – |
| C=CC(=O)Nc1cccc(-c2c(-c3ccc(N4CCN(C)CC4)cc3)[nH]c3ncnc(OCC(C)C)c23)c1 | 2310 | 26 | 1120 | – |
| C=CC(=O)Nc1cccc(-c2c(-c3ccc(N4CCN(C)CC4)cc3)[nH]c3ncnc(Nc4ccc(OC(c5ccccc5)c5ccccc5)cc4)c23)c1 | 2630 | 4.5 | > 3000 | – |
| C=CC(=O)Nc1cccc(-c2c(-c3ccc(N4CCN(C)CC4)cc3)[nH]c3ncn(CC)c(=O)c23)c1 | 2340 | 84 | 2810 | – |
| C=CC(=O)Nc1cc(-c2c[nH]c3ncnc(Nc4ccc(CN5C(=O)c6ccccc6C5=O)cc4)c23)ccc1OCCO | 1610 | 15 | 675 | – |
| C=CC(=O)Nc1cccc(-c2c(-c3ccc(N4CCN(C)CC4)cc3)[nH]c3ncnc(Nc4ccc(CN5C(=O)c6ccccc6C5=O)cc4)c23)c1 | 490 | 55 | 638 | – |
| C=CC(=O)Nc1cccc(-c2c[nH]c3ncnc(Nc4ccc(OC(c5ccccc5)c5ccccc5)cc4)c23)c1 | 6390 | 26 | 497 | – |
| C=CC(=O)Nc1cccc(-c2c[nH]c3ncnc(Nc4ccc(Cc5ccccc5)cc4)c23)c1 | > 3000 | 29 | 754 | – |
| C=CC(=O)Nc1cccc(-c2c(-c3ccc(N4CCN(C)CC4)cc3)[nH]c3ncn(C(C)C)c(=O)c23)c1 | 2050 | 592 | 3600 | – |
| COc1cc2ncnc(Nc3ccc(F)c(Cl)c3)c2cc1OCCCN1CCOCC1 [GEFITINIB] | – | – | 2880 | – |

Further lines, with some results ahead:

| IC50 (cells) [nM] | IC50 [2] [nM] | SMILES | IC50 [1] [nM] | also measured |
| --- | --- | --- | --- | --- |
| 334 | 13 | C=CC(=O)Nc1cccc(-c2c(-c3ccc(N4CCN(C)CC4)cc3)[nH]c3ncnc(Nc4ccc(OC(=O)C(c5ccccc5)N5Cc6ccccc6C5=O)cc4)c23)c1 (stereo not drawn) | 390 | – |
| 165 | 3.9 | C=CC(=O)Nc1cccc(-c2c(-c3ccc(N4CCN(C)CC4)cc3)[nH]c3ncnc(Nc4ccc(O)cc4)c23)c1 | 431 | – |
| 201 | 1.9 | C=CC(=O)Nc1cc(-c2c[nH]c3ncnc(Nc4ccc(OCc5ccccn5)c(Cl)c4)c23)ccc1OCCO | 84 | – |
| 252 | 14 | C=CC(=O)Nc1cccc(-c2c(-c3ccc(N4CCN(C)CC4)cc3)[nH]c3ncnc(Nc4ccc(OCc5ccccn5)c(Cl)c4)c23)c1 | 285 | – |
| 305 | 14 | C=CC(=O)Nc1cccc(-c2c[nH]c3ncnc(Nc4ccc(OCc5cccc(F)c5)c(Cl)c4)c23)c1 | 135 | – |
| 105 | 12 | C=CC(=O)N1CCC(Oc2cc3c(Nc4ccc(Cl)c(Cl)c4F)ncnc3cc2OC)CC1 [POZIOTINIB] | < 14 | Stabilty ([3]; 1 h, 5 µM): 120.4%; efflux ratio at 2 h, 5 µM [11]: 0.36; microsomal CLint at 3 µM [4]: 35.4 µL/min/mg; Papp A→B at 2 h, 5 µM [5]: 21.1 ×10⁻⁶ cm/s; Papp B→A at 2 h, 5 µM [6]: 7.5 ×10⁻⁶ cm/s; solubility kinetic at 1.5 h, 500 µM [10]: 39.3 µM (≈ 19.3 µg/mL); remaining at 1 h, 5 µM [7]: 86.9%; microsomal CLint at 3 µM [8]: 22 µL/min/mg |
| 148 | – | CCOc1cc2ncc(C#N)c(Nc3ccc(OCc4ccccn4)c(Cl)c3)c2cc1NC(=O)/C=C/CN(C)C [NERATINIB] | < 14 | remaining at 1 h, 5 µM [3]: 97.4%; microsomal CLint at 3 µM [4]: 126 µL/min/mg; Papp A→B at 2 h, 5 µM [5]: 0.09 ×10⁻⁶ cm/s; Papp B→A at 2 h, 5 µM [6]: 0.4 ×10⁻⁶ cm/s; solubility kinetic at 2 h [9]: > 10 µM; solubility kinetic at 1.5 h, 500 µM [10]: 1.2 µM (≈ 0.668 µg/mL); remaining at 1 h, 5 µM [7]: 80.7%; Ki [12]: 6.3 nM; microsomal CLint at 3 µM [8]: 42 µL/min/mg |
| 332 | 7.9 | C=CC(=O)Nc1cccc(-c2c[nH]c3ncnc(Nc4ccc5c(ccn5Cc5ccccc5)c4)c23)c1 | 304 | – |
| 264 | 12 | C=CC(=O)Nc1cccc(-c2c(-c3ccc(N4CCN(C)CC4)cc3)[nH]c3ncnc(Nc4ccc(OCN5C(=O)c6ccccc6C5=O)cc4)c23)c1 | 411 | – |
| 193 | 3.5 | C=CC(=O)Nc1cccc(-c2c[nH]c3ncnc(Nc4ccc5[nH]c(Cc6ccccc6)nc5c4)c23)c1 | 349 | – |
| 271 | 9.3 | C=CC(=O)Nc1cc(-c2c[nH]c3ncnc(Nc4ccc(OCc5ccccn5)c(Cl)c4)c23)ccc1OCCCO | 41 | – |
| 126 | 12 | C=CC(=O)Nc1cccc(-c2c[nH]c3ncnc(Nc4ccc5c(cnn5Cc5ccccc5)c4)c23)c1 | 53 | – |
| 357 | 50 | C=CC(=O)Nc1cccc(-c2c(-c3ccc(N4CCN(C)CC4)cc3)[nH]c3ncnc(OC)c23)c1 | 910 | – |
